Source: patent publication US11952385B1, “12-bromo-2,16-dioxa-9,9,18,18-tetramethylpentacyclo[7.7.5.0 1, 21.0 3,8.0 10,15]henicosa3(8),10,12,14-tetraene-7,20-dione as an antimicrobial compound” (KING FAISAL UNIVERSITY, priority 2023, dated 2024)

Legend:
Type in all cases: cell-based
Conditions in all cases: after 10, 20, 40 and 60 minutes at all dilutions 1:100, 1:200, 1:400, and 1:800
Staphylococcus aureus = experiment: Antimicrobial activity by agar dilution, St. Aereus
Protocol: (§1) The antibacterial properties of the synthesized compound (12-bromo-2,16-dioxa-9,9,18,18-tetramethylpentacyclo[7.7.5.0^1,21.0^3,8.0^10,15]henicosa3(8),10,12,14-tetraene-7,20-dione) were studied by the method of agar dilution. Test solutions of each compound was prepared in concentration of 1% using dimethylformamide as a solvent. Then they were diluted in physiological solution to obtain the final experimental dilutions of 1:100, 1:200, 1:400, and 1:800. The effect of these substances were compared with furacillin in a controllable study. The testing microbes used were gram positive bacteria Staphylococcus aureus, gram negative bacteria Pseudomonas aeruginosa, Escherichia coli, and Candida albicans fungus. The experiments used for this survey were meat-pentonlu agar (EPA) for cultivation of bacteria and Saburo environment for fungi. Each experiment used 1 mL of test solution on each plate for 500 minutes. Two drops of emulsified with microbes feel were added. All experimental samples were taken from the agar after 10, 20, 40, 60 minutes in the environment on the basis of Patrk planted. Bacteria were cultivated at a temperature of 37° C. for 1 day and the mushroom was kept in a thermostat for 2 hours at a temperature of 28° C. Then results were checked. […]

Escherichia coli = experiment: Antimicrobial activity by agar dilution, E. Coli
Protocol: as §1

Pseudomonas aeruginosa = experiment: Antimicrobial activity by agar dilution, Ps. aeruginosa
Protocol: as §1

Candida albicans = experiment: Antimicrobial (antifungal) activity by agar dilution, Candida albicans
Protocol: as §1

Measured: inhibition activity compared with the inhibition activity of Furacilin

CC1(C)CC(=O)C2=C(C1)OC13CC(C)(C)CC(=O)C1C2c1cc(Br)ccc1O3 (stereo not shown) [12-bromo-2,16-dioxa-9,9,18,18-tetramethylpentacyclo[7.7.5.0^1,21.0^3,8.0^10,15]henicosa3(8),10,12,14-tetraene-7,20-dione]
higher inhibition activity: all assays above
